Data taken from BindingDB's records for doi:10.1016/s0028-3908(97)00161-5 (University of Bristol, 1997).

Biological target: Glutamate receptor (Oryctolagus cuniculus, UniProt G1SXH9)
Sequence (G1SXH9 whole entry): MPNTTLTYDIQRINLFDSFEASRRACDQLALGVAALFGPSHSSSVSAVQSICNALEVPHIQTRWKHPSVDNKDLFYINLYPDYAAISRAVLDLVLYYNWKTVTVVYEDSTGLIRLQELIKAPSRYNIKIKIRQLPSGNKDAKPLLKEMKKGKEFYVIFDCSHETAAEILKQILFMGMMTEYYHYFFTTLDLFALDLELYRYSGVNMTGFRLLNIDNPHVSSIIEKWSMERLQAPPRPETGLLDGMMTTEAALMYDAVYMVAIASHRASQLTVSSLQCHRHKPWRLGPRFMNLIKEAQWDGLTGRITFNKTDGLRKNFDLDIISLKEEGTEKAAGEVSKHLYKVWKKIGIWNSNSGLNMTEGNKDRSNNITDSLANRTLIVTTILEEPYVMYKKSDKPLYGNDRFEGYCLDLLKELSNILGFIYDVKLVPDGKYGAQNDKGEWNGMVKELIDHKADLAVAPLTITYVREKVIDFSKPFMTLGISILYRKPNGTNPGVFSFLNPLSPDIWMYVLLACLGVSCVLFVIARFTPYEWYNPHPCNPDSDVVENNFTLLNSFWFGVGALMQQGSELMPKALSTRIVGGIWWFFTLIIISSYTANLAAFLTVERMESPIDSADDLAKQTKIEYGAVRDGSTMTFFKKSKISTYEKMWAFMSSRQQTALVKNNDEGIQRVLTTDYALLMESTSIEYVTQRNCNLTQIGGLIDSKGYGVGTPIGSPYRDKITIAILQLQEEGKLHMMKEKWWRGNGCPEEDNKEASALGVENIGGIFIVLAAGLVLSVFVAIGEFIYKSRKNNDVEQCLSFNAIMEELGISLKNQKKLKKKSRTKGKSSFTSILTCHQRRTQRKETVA

Row | Structure (SMILES) | Ki
1 | C/C(=C\C=C\[C@@H](C)C(=O)O)[C@H]1CN[C@H](C(=O)O)[C@H]1CC(=O)O | 0.71 nM
2 | N[C@@H](Cn1oc(=O)[nH]c1=O)C(=O)O [2-amino-3-(3,5-dioxo[1,2,4]oxadiazolidin-2-yl)propionic acid] | 16.5 nM
3 | N#Cc1cc2nc(O)c(O)nc2cc1[N+](=O)[O-] [7-Cyano-3-hydroxy-6-nitro-quinoxalin-2-ol anion] | 2150 nM
4 | N[C@@H](Cn1cc(F)c(=O)[nH]c1=O)C(=O)O [(S)-5-Fluorowillardiine] | > 10000 nM
5 | CN[C@H](CC(=O)O)C(=O)O [NMDA] | > 10000 nM
